The source of these data is paper PMC6896740, “Safety, tolerability, pharmacokinetics, and pharmacodynamics of PF-06650833, a selective interleukin-1 receptor-associated kinase 4 (IRAK4) inhibitor, in single and multiple ascending dose randomized phase 1 studies in healthy subjects” (Arthritis Research & Therapy, 2019).

In one data set the test system is healthy adult subjects. Put plainly: Study 1 (SAD) safety and tolerability: TEAEs. The format is in vivo. The text has this: Study 1 (B7921001; NCT02224651) was a 96-day, phase 1, within-cohort, randomized, double-blind, sponsor-open, placebo-substitution, five-period crossover, SAD study in healthy adult subjects (Fig. 1a). Subjects were sequentially enrolled into four cohorts of ten subjects each. Within each cohort, the subjects were randomized into a maximum of five periods. Within each period, eight subjects and two subjects were randomized to receive PF-06650833 and placebo, respectively. In this placebo-substitution design, all subjects within a cohort received one or more doses of PF-06650833 and/or placebo. Single oral doses of PF-06650833 IR formulations from 1 to 6000 mg, and MR formulations from 30 to 300 mg, were administered in fasted (overnight fast of ≥ 10 h) and/or fed (high-fat breakfast meal) states. Doses were escalated sequentially by period within each cohort (see Fig. 1a for final dosing scheme), based upon the evaluation of ≥ 48 h of safety and tolerability for all subjects and ≥ 8 h of PK data for at least six subjects receiving PF-06650833 and one subject receiving placebo. Dose escalation was to cease when either the limits of safety and/or tolerability were reached, the projected exposure at the subsequent dose exceeded the toxicokinetic limit (TK) established based on the no observable adverse effect level (NOAEL) in relevant animal studies, or a plateau in exposure was reached.
The effects of food on the plasma PK profile of the IR and MR formulations were explored in cohorts 1 and 3, respectively, by administering 30 mg doses of PF-06650833 in a fasted state and after a high-fat meal. A 1000-mg dose of the IR formulation was also tested in cohort 3 in an attempt to identify a maximum tolerated dose (MTD). Since TK limits were not reached with the IR formulation at doses up to 1000 mg, the IR doses were escalated to 2000 and 6000 mg with a high-fat meal in cohort 4 (Fig. 1a).
Safety assessments included incidence and severity of treatment-emergent AEs (TEAEs) and discontinuation due to TEAEs, incidence of treatment-emergent clinical laboratory abnormalities, and proportion of subjects meeting with pre-defined criteria for potential clinical concern in vital signs and electrocardiogram (ECG) parameters.
The safety analysis set was defined as all subjects who received at least one dose of study treatment, and data were summarized descriptively. The PK concentration analysis set was defined as all enrolled, treated subjects who had at least one concentration in at least one treatment period. The PK parameter analysis set was defined as all enrolled, treated subjects who had at least one of the PK parameters of interest in at least one treatment period. The PD analysis set was defined as all enrolled subjects who received at least one dose of PF-06650833 and had at least one PD parameter. PK/PD data were summarized descriptively.

Data set [1] has as its system high-sensitivity C-reactive protein (hsCRP). Put plainly: Study 2 (MAD) serum hsCRP pharmacodynamics. The format is in vivo, human. The text has this: The primary objective of study 2 was to determine the safety and tolerability of MAD of orally administered IR and MR formulations of PF-06650833 after a standard meal in healthy adult subjects. The secondary objective was to evaluate the plasma and urine PK profiles of PF-06650833 after repeat dosing. Exploratory objectives were to assess the effects of PF-06650833 on exploratory biomarkers of PD activity, including high-sensitivity C-reactive protein (hsCRP), and to evaluate cholesterol/hydroxycholesterol ratios as an endogenous marker for cytochrome P450 3A (CYP3A) induction or inhibition.
For both studies, samples of blood (and urine in study 2) were taken for evaluation of PK/PD parameters (see Additional file 1: Supplemental Methods). PK samples were obtained at the nominal time relative to dosing (± 10%). Plasma and urine samples were analyzed using validated, sensitive, and specific liquid chromatography tandem mass spectrometric methods (at Pfizer Inc., Groton, CT, USA, for study 1 and at Worldwide Pharmacokinetics, Dynamics and Metabolism, Cambridge, MA, USA, for study 2). The lower limit of quantification for PF-06650833 in plasma was 0.0500 ng/mL. The lower limit of quantification for PF-06650833 in urine was 1.00 ng/mL. Serum samples were also analyzed for hsCRP, and plasma samples were analyzed for 4β-hydroxycholesterol and cholesterol.
The safety analysis set was defined as all subjects who received at least one dose of study treatment, and data were summarized descriptively. The PK concentration analysis set was defined as all enrolled, treated subjects who had at least one concentration in at least one treatment period. […]
35 Plasma samples were analyzed using a validated, sensitive , and specific liquid […]
38 MA, USA for Study 2). The lower limit of quantification (LLOQ) for PF-06650833 in plasma
39 was 0.0500 ng/mL. Between-day assay accuracy values were also calculated (not shown). […]
44 cohorts. Urine samples were also analyzed using a validated, sensitive , and specific LC-MS […]

The mark [2] stands for this setting: IR 2000 mg single dose, fed (high-fat), 8 evaluable.

For `CC[C@@H]1[C@H](F)C(=O)N[C@@H]1COc1nccc2cc(C(N)=O)c(OC)cc12` [PF-06650833, 1-{[(2S,3S,4S)-3-Ethyl-4-fluoro-5-oxopyrrolidin-2-yl]methoxy}-7-methoxyisoquinoline-6-carboxamide], in the data set on healthy adult subjects (IR 1 mg single dose, fasted, 8 evaluable), the “Infections and infestations: subjects with AE, all causalities (treatment-related)” value is 1 (0). Further, in the data set on healthy adult subjects (setting [2]), the “Infections and infestations: subjects with AE, all causalities (treatment-related)” value is listed as 1 (0); the “Upper respiratory tract infection: subjects with AE, all causalities (treatment-related)” value was 1 (0). The “Serious AEs or deaths” value in the data set with healthy adult subjects (all dose groups) is on record as “No serious AEs or deaths”. In the data set on healthy adult subjects (human, in vivo), the “Subjects with treatment-related TEAEs” value was 4 and the “Total treatment-related TEAEs” value was found to be 10. Besides, in the data set on healthy adult subjects (in vivo), the “Severity of TEAEs” value is on record as “mild or moderate” and the “Treatment-related TEAEs” value is “No treatment-related TEAEs”. In the data set with healthy adult subjects (single doses IR up to 6000 mg, MR up to 300 mg), the Maximum tolerated dose result is recorded as “not established”. In addition, in data set [1] (IR ≥ 250 mg BID and MR 300 mg QD), the “Day by which maximal hsCRP reduction was reached” value is at most 7 days. The “Change from baseline in serum hsCRP” value in data set [1] (IR ≥ 250 mg BID and MR 300 mg QD, multiple dosing) was “sustained decrease”. In data set [1] (day 14, highest dose groups), the “Reduction from baseline in hsCRP (geometric mean percentage)” value was 60–70%.
